Data taken from patent EP1082958A2, “5-HT1F agonists in chronic pain” (ELI LILLY AND COMPANY, priority 1996, dated 1998).

Columns and labels:
5-HT1E = target: T1, 5-HT1E (Homo sapiens, UniProt P28566); assay: Radioligand binding ([3H]5-HT displacement) to cloned 5-HT1E receptor; conditions: read-out: BINDING TO SEROTONIN (5-HT1) RECEPTOR SUBTYPES (Ki-nM) 5-HT1E, 4.5-5.5 nM [3H]5-HT, 37°C, Ki from IC50 by Cheng-Prusoff
T1 construct: expressed in transfected cells; host or cells: transfected Ltk- cells (by analogy 'as described supra')
T1 sequence (P28566 whole entry, species assumed): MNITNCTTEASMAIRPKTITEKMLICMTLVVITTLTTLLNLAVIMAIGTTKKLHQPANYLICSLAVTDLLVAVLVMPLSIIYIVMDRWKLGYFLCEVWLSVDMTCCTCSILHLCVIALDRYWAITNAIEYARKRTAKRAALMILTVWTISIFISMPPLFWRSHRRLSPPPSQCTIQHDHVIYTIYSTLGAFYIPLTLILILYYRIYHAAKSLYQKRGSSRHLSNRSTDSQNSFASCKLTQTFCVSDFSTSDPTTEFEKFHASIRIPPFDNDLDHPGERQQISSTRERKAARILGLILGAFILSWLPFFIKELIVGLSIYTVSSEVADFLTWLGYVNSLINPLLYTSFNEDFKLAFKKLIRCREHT
Description: Membrane Preparation: Membranes were prepared from transfected Ltk- cells which were grown to 100% confluency. The cells were washed twice with phosphate-buffered saline, scraped from the culture dishes into 5 mL of ice-cold phosphate-buffered saline, and centrifuged at 200 x g for 5 minutes ^at 4°C. The pellet was resuspended in 2.5 mL of ice-cold Tris buffer (20 mM Tris HCl, pH=7.4 a^t […]) and homogenized with a Wheaton tissue grinder. The lysate was subsequently centrifuged at 200 x g for 5 minutes at 4°C to pellet large fragments which were discarded. The supernatant was collected and centrifuged at 40,000 x g for 20 minutes at 4°C. […] Protein concentrations were determined by the method of Bradford (Anal. Biochem., 72, 248-254 (1976)).
Radioligand Binding: [^3H-5-HT] binding was performed using slight modifications of the 5-HT1D assay conditions reported by Herrick-Davis and Titeler (J. Neurochem., 50, 1624-1631 (1988)) with the omission of masking ligands. […] Incubation times were 30 minutes for both saturation and displacement studies based upon initial investigations which determined equilibrium binding conditions. […] Binding data was analyzed by computer-assisted nonlinear regression analysis (Accufit and Accucomp, Lunden Software, Chagrin Falls, OH). […]

[1] = tested on: neuronal protein extravasation; assay: Protein extravasation after electrical stimulation of the trigeminal ganglion (Evans Blue in dura); type: in vivo, Harlan Sprague-Dawley rats or guinea pigs; conditions: 10 minutes before stimulation of the left trigeminal ganglion, dose inhibiting extravasation by 50%, approximated from dose-response curve, rats or guinea pigs (species not given)
Description: Harlan Sprague-Dawley rats (225-325 g) or guinea pigs from Charles River Laboratories (225-325 g) were anesthetized with sodium pentobarbital intraperitoneally (65 mg/kg or 45 mg/kg respectively) and placed in a stereotaxic frame (David Kopf Instruments) with the incisor bar set at - 3.5 mm for rats or -4.0 mm for guinea pigs. Following a midline sagital scalp incision, two pairs of bilateral holes were drilled through the skull (6 mm posteriorly, 2.0 and 4.0 mm laterally in rats; 4 mm posteriorly and 3.2 and 5.2 mm laterally in guinea pigs, all coordinates referenced to bregma). Pairs of stainless steel stimulating electrodes (Rhodes Medical Systems, Inc.) were lowered through the holes in both hemispheres to a depth of 9 mm (rats) or 10.5 mm (guinea pigs) from dura.
The femoral vein was exposed and a dose of the test compound was injected intravenously (1 mL/kg). Approximately 7 minutes later, a 50 mg/kg dose of Evans Blue, a fluorescent dye, was also injected intravenously. The Evans Blue complexed with proteins in the blood and functioned as a marker for protein extravasation. Exactly 10 minutes post-injection of the test compound, the left trigeminal ganglion was stimulated for 3 minutes at a current intensity of 1.0 mA (5 Hz, 4 msec duration) with a Model 273 potentiostat/ galvanostat (EG&G Princeton Applied Research).
Fifteen minutes following stimulation, the animals were killed and exsanguinated with 20 mL of saline. The top of the skull was removed to facilitate the collection of the dural membranes. The membrane samples were removed from both hemispheres, rinsed with water, and spread flat on microscopic slides. Once dried, the tissues were coverslipped with a 70% glycerol/water solution.
A fluorescence microscope (Zeiss) equipped with a grating monochromator and a spectrophotometer was used to quantify the amount of Evans Blue dye in each sample. An excitation wavelength of approximately 535 nm was utilized and the emission intensity at 600 nm was determined. The microscope was equipped with a motorized stage and also interfaced with a personal computer. This facilitated the computer-controlled movement of the stage with fluorescence measurements at 25 points (500 µm steps) on each dural sample. The mean and standard deviation of the measurements was determined by the computer.
The extravasation induced by the electrical stimulation of the trigeminal ganglion was an ipsilateral effect (i.e. occurs only on the side of the dura in which the trigeminal ganglion was stimulated). This allows the other (unstimulated) half of the dura to be used as a control. The ratio of the amount of extravasation in the dura from the stimulated side compared to the unstimulated side dura was calculated. […]

SMILES	Ki (5-HT1E) [nM]	Inhibition of Protein Extravasation, i.v. ID50 [1] [mmol/kg]
CNS(=O)(=O)Cc1ccc2[nH]cc(CCN(C)C)c2c1.O=C(O)CCC(=O)O [Compound I, 3-[2-(dimethylamino)ethyl]-N-methyl-1H-indole-5-methanesulfonamide butane-1,4-dioate (1:1)]	2520	2.6e-08
O=C(O)C(=O)O.Oc1ccc2[nH]cc(C3CCNCC3)c2c1 [Compound III, 5-hydroxy-3-(4-piperidinyl)-1H-indole oxalate]		8.9e-09
CCN(CC)C1CCc2cccc(Cl)c2C1.Cl (centres unmarked) [Compound IV, 8-chloro-2-diethylamino-1,2,3,4-tetrahydronaphthalene hydrochloride]		1.2e-07
CN(C)C1CCc2[nH]c3ccc(O)cc3c2C1 (centres unmarked) [Compound V, 6-hydroxy-3-dimethylamino-1,2,3,4-tetrahydrocarbazole]		8.7e-09
